Assay results: US20250228756A1, “Anhydrous Urea Emulsions with a Retinoid Agent” (Baek Clinical Inc., priority 2021, published 2025)
Where two headings read alike, the source gives them in different places. One block for each compound: values may come before it.

Experiments:
[1] = Assessment of formulation components: solubility in non-aqueous solvents; assay type: physicochemical
Description: A series of experiments were performed to assess and optimize the components of the subject formulations. AA refers to L-ascorbic acid. U refers to urea. % values are wt %.
Additional ingredients were chosen for their compatibility with (e.g., miscibility in) 1,3 propanediol, 1,2 propanediol, and 1,3 butanediol.

skin [2] = conditions: concentrations of 0.2%; clinical data from SEPPIC; cited from earlier work
[3] = in most solvents; cited from earlier work
skin [4] = conditions: cited from earlier work

- solubility ([1]; at a concentration of 0.2% in 1,3 propanediol, 1,2 propanediol and 1,3 butanediol): soluble
Compound: Madecassoside
- ability to reduce erythema (skin redness) (skin [2]): desirable ability to reduce erythema

- change of solubility by the presence of hydroxyethyl urea ([1]; in 1,3 propanediol): slightly increased
- concentration that can be solubilized ([1]; in 1,3 propanediol): up to 10%
- concentration that is possible to solubilize ([1]; with 10% AA, 5% U in a 1,3 propanediol base): 7.5%
Compound: O=C(O)CCCCCCCC(=O)O [AzA, Azelaic acid, reference compound]
- solubility [3]: very poorly soluble

- ability of solvent to solubilize urea ([1]; solvent 1,2-hexanediol): moderate
- ability of solvent to solubilize urea ([1]; solvent 1,2-propanediol (propylene glycol)): moderate
- ability of solvent to solubilize urea ([1]; solvent 1,3-butanediol (butylene glycol)): moderate
- ability of solvent to solubilize urea ([1]; solvent 1,3-propanediol): moderate
- ability of solvent to solubilize urea ([1]; solvent 1,5-pentanediol, otherwise referred to as pentylene glycol): moderate
- ability of solvent to solubilize urea ([1]; solvent dimethyl isosorbide): very limited
- ability of solvent to solubilize urea ([1]; solvents glycerin and diglycerin): moderate
Compound: NC(N)=O [urea]

- solubility ([1]; in 1,3 propanediol, 1,2 propanediol and 1,3 butanediol at the desired concentrations (0.5-1%)): readily soluble
Compound: COc1cc(CC(C(C)=O)C(C)=O)ccc1O [Acetyl zingerone]

- solubility ([1]; in 1,3-propanediol): shows solubility
Compound: CC1(C)[C@@H](O[C@H]2O[C@H](C(=O)O)[C@@H](O)[C@H](O)[C@H]2O[C@@H]2O[C@H](C(=O)O)[C@@H](O)[C@H](O)[C@H]2O)CC[C@]2(C)[C@H]3C(=O)C=C4[C@@H]5C[C@@](C)(C(=O)O)CC[C@]5(C)CC[C@@]4(C)[C@]3(C)CC[C@@H]12 [glycyrrhizic acid, Glycyrrhizic acid]

Compound: CC(C)(CO)[C@@H](O)C(=O)NCCCO [Panthenol]
- concentration at which inhibition of transepidermal water loss is apparent (skin [4]): ≥ 1%
